{"source": "ChEMBL document CHEMBL1201862", "about": "“PubChem BioAssay data set” (2004)", "key": {"Melanocortin receptor 4": {"target": "Melanocortin receptor 4 (Homo sapiens, UniProt P32245)", "sequence (P32245 whole entry)": "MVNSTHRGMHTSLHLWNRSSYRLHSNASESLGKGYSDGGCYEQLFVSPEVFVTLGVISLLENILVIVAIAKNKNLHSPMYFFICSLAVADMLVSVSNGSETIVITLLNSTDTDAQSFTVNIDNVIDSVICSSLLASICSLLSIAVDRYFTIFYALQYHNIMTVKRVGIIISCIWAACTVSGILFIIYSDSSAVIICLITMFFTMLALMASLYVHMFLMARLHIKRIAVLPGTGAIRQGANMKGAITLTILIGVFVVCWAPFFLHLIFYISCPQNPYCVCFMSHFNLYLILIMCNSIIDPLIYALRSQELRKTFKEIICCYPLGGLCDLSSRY", "format": "functional, cell-based"}, "HEK293 [1]": {"system": "HEK293", "test": "inhibition of NOD1-driven NF-kB reporter – cell-based, luminescence, uHTS, primary screen (AID 1578)", "format": "functional", "conditions": "Homo sapiens"}, "HEK293 [2]": {"system": "HEK293", "test": "cells", "format": "functional, cell-based", "conditions": "Homo sapiens"}, "HEK293 [3]": {"system": "HEK293", "test": "cells", "format": "functional, cell-based", "conditions": "Homo sapiens", "remark": "listed apart in the source"}, "[4]": {"target": "Nucleotide-binding oligomerization domain-containing protein 2 (Homo sapiens, UniProt Q9HC29)", "sequence (Q9HC29 whole entry, the tested form may be a part)": "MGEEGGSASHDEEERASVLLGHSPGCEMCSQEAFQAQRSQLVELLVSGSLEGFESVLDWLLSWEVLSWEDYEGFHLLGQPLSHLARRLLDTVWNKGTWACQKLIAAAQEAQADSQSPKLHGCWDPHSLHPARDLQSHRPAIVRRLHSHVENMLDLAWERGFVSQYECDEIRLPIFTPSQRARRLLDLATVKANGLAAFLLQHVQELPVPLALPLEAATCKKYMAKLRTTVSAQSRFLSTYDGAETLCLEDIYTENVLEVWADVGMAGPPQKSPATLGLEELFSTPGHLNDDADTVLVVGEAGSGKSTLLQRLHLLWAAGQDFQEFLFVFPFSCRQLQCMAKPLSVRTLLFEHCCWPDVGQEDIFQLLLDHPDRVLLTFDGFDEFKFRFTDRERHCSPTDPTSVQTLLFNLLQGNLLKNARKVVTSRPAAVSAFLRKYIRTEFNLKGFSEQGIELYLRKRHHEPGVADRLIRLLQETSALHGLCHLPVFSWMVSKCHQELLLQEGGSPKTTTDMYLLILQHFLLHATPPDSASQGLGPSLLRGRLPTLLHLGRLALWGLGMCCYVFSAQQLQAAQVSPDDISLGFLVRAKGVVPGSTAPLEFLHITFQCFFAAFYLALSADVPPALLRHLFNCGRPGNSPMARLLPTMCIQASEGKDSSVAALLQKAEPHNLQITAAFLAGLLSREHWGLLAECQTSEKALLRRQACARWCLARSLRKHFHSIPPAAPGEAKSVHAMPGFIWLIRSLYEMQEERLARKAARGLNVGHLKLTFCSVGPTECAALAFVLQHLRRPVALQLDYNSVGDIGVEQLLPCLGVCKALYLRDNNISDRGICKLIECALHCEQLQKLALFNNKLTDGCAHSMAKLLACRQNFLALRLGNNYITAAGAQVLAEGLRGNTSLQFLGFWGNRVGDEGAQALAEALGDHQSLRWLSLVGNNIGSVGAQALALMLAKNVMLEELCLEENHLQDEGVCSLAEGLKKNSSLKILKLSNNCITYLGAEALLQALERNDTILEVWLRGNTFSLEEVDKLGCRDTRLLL", "test": "inhibition of NOD2-driven NF-kB reporter – cell-based, luminescence, uHTS, HEK293 (AID 1566)", "format": "functional"}, "HEK293 [5]": {"system": "HEK293", "test": "NOD2 signaling inhibitors in MDP-stimulated cells, cell-based, uHTS, luminescence (AID 2001)", "format": "functional", "conditions": "Homo sapiens"}, "HEK293 [6]": {"system": "HEK293", "test": "cells", "format": "functional, cell-based", "conditions": "Homo sapiens", "remark": "listed apart in the source"}, "Interleukin-8 [7]": {"target": "T1, Interleukin-8 (Homo sapiens, UniProt P10145)", "T1 sequence (P10145 whole entry)": "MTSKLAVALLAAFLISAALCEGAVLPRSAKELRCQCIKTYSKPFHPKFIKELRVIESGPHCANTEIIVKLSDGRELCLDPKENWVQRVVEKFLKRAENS", "test": "Dose Response confirmation of uHTS small molecule hits for cystic fibrosis induced NFkb Inhibitors in a TNFa-induced IL8 counterscreen.", "format": "functional", "conditions": "read-out: IC50_Mean"}, "Interleukin-8 [8]": {"target": "T1, Interleukin-8", "test": "Dose Response confirmation of uHTS small molecule hits for cystic fibrosis induced NFkb Inhibitors in a PAF-induced IL8 counterscreen.", "format": "functional", "conditions": "read-out: IC50_Mean"}, "[9]": {"target": "Melanin-concentrating hormone receptor 1 (Homo sapiens, UniProt Q99705)", "sequence (Q99705 whole entry)": "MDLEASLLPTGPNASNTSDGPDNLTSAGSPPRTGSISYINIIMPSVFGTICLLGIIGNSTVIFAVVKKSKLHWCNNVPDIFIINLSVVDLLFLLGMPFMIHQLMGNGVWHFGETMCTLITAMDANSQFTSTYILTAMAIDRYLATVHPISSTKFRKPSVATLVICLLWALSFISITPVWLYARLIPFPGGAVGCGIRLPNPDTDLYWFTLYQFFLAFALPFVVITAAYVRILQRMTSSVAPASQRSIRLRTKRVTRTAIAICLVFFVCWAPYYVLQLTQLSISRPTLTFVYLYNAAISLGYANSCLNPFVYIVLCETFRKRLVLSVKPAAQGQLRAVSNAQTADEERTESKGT", "test": "Late-stage fluorescence-based counterscreen for antagonists of the G-protein coupled receptor 7 (GPR7): cell-based dose response assay to identify antagonists of the melanin-concentrating hormone receptor 1 (MCHR1) Set 6.", "format": "functional"}, "[10]": {"target": "Neuropeptides B/W receptor type 1 (Homo sapiens, UniProt P48145)", "sequence (P48145 whole entry)": "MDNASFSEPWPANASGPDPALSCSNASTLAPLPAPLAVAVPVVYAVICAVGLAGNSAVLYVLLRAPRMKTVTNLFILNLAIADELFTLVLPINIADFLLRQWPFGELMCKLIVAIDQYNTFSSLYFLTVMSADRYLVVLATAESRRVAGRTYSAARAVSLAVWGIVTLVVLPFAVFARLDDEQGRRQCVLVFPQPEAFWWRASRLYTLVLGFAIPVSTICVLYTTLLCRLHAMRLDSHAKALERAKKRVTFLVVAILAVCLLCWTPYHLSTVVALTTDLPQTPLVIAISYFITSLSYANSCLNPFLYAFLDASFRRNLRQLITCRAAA", "test": "human NPBW1 receptor blockade, IC50 – cell-based, fluorescence, dose response, set 6, late-stage follow-up (AID 588583)", "format": "functional"}, "[11]": {"target": "T2, High affinity choline transporter 1 (Homo sapiens, UniProt Q9GZV3)", "T2 sequence (Q9GZV3 whole entry)": "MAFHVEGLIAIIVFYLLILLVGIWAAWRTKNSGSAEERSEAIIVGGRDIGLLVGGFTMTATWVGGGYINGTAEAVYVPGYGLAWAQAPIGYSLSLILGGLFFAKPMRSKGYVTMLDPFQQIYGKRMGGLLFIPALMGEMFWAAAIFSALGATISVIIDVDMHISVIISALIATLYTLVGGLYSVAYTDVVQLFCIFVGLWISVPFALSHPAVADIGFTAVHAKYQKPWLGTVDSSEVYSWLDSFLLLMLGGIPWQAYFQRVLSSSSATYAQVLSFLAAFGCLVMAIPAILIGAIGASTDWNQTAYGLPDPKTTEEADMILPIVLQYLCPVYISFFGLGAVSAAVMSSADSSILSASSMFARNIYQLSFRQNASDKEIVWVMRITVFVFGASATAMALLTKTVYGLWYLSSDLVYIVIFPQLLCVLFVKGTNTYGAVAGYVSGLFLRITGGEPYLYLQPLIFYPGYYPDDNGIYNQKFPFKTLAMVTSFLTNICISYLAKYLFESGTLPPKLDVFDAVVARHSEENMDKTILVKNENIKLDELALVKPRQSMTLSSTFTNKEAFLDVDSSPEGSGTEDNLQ", "test": "human choline transporter blockers, potency – cell-based, 5-point CRC, membrane potential dye, dose response (AID 504840)", "format": "functional"}, "[12]": {"target": "T2, High affinity choline transporter 1", "test": "human choline transporter blockers, potency – cell-based, 10-point CRC, membrane potential dye, dose response (AID 588401);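 also: membrane potential dye fluorescence of choline-evoked depolarization via CHT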", "format": "functional"}}, "note": "Activity calls are given as the source filed them.", "data": [{"smiles": "NC(Cc1ccc(Cl)cc1)c1csc(Nc2ccc(-c3ccccc3)nn2)n1", "note": "(stereo not given)", "values": [{"measurement": "EC50", "setting": "Melanocortin receptor 4", "result": "> 89.2 µM (inactive)"}]}, {"smiles": "CCSc1nsc(NC(=O)Nc2cccc(C(C)=O)c2)n1", "values": [{"measurement": "EC50", "setting": "HEK293 [1]", "result": "4.27 µM (active)"}, {"measurement": "IC50", "setting": "HEK293 [2]", "result": "1.27 µM (active)"}, {"measurement": "IC50", "setting": "HEK293 [3]", "result": "> 20 µM (inactive)"}, {"measurement": "EC50", "setting": "[4]", "result": "6.47 µM (active)"}, {"measurement": "IC50", "setting": "HEK293 [5]", "result": "2.39 µM (active)"}, {"measurement": "IC50", "setting": "HEK293 [6]", "result": "> 20 µM (inactive)"}, {"measurement": "IC50", "setting": "Interleukin-8 [7]", "result": "1.77 µM (active)"}, {"measurement": "IC50", "setting": "Interleukin-8 [8]", "result": "5.42 µM (active)"}]}, {"smiles": "O=c1c(-c2ccccc2F)c(Br)cnn1Cc1cccc2ccccc12", "values": [{"measurement": "IC50", "setting": "[9]", "result": "3.58 µM (active)"}, {"measurement": "IC50", "setting": "[10]", "result": "3.58 µM (active)"}]}, {"smiles": "CCOc1ccc(C(C#N)c2c(Br)cnn(Cc3cccc4ccccc34)c2=O)cc1", "note": "(stereo not given)", "values": [{"measurement": "IC50", "setting": "[9]", "result": "0.4 µM (active)"}, {"measurement": "IC50", "setting": "[10]", "result": "0.4 µM (active)"}]}, {"smiles": "C/C(=N\\N=C(N)N)c1ccc(Cl)cc1", "values": [{"measurement": "IC50", "setting": "[11]", "result": "7.39 µM (active)"}, {"measurement": "IC50", "setting": "[12]", "result": "4.01 µM (active)"}]}]}
